According to patent US12396985B2, “Composition for oral administration with controlled release properties comprising complex of clay minerals, method for preparing same, and method for controlling release properties” (Korea Institute of Geoscience and Mineral Resources, priority 2019, dated 2025):
Converted amounts (≈) assume the structure as drawn.

What was measured:
[1] = aqueous solubility of the compound of Chemical Formula 1; format: physicochemical
[2] = partition coefficient (octanol/water); format: physicochemical
[3] = adsorption rate of vactosertib onto bentonite; format: physicochemical
Description: The adsorption rates of vactosertib and bentonite according to the pH of a solvent were evaluated. At this time, considering that the vactosertib was not dissolved in neutral, but stated to be dissolved in about 1 mg/mL from pH 3, a test was performed by setting a reaction pH to pH 1, pH 2, and pH 3. First, 10 mg/mL of the vactosertib was dissolved in a 0.1 N hydrochloric acid aqueous solution and diluted with a hydrochloric acid aqueous solution or a phosphate buffer solution (pH 1: 0.1 N hydrochloric acid aqueous solution, pH 2, pH 3: phosphate buffer solution) corresponding to each pH to adjust the concentration to 1 mg/mL. 1 mL of a corresponding drug solution, 8 mL of a reaction solution (that is, 0.1 N hydrochloric acid aqueous solution or phosphate buffer solution) corresponding to each pH, and 1 mL of a 5 mg/mL suspension in which bentonite was suspended in distilled water were mixed and left for 30 minutes to adsorb the drug onto the bentonite. Thereafter, a drug concentration of a supernatant obtained by centrifugation (3,000 rpm, 5 minutes) was analyzed. Through this, the drug amount adsorbed onto the bentonite was indirectly calculated as shown in Equation 1 by removing the remaining drug amount in the supernatant from the entirely applied drug (vactosertib) to calculate an adsorption rate. [formula] [formula] To this end, a sample was prepared in the same manner as in Test Example 1, and a complex was prepared by fixing a reaction concentration and a reaction pH of bentonite to 0.5 mg/mL and pH 1, respectively, and varying the concentration of the applied vactosertib from 0.01 mg/mL to 0.5 mg/mL. In addition, a difference in adsorption rate according to the concentration of vactosertib was measured. To this end, a sample was prepared in the same manner as in Test Example 1, and a complex was prepared by using a solvent of pH 1, setting a concentration ratio of vactosertib and bentonite to 1:5, and varying an absolute concentration (that is, actual concentration). In addition, a difference in adsorption rate according to an absolute concentration was measured.

[4] = system: ulcerative colitis mouse model induced with DSS; assay: histopathological severity scores in ulcerative colitis mouse model induced with DSS; format: in vivo, C57BL/6 mice
Description: Animal tests were performed to confirm anti-inflammatory, anti-crypt cell damage, anti-ulcer, anti-edema, and anti-fibrosis effects of a vactosertib/bentonite complex using a mouse model of ulcerative colitis as one of inflammatory bowel diseases. C57BL/6 mice were selected as test animals, and in order to induce ulcerative colitis, a cycle in which an inflammation inducing substance, DSS was added in drinking water and supplied for 7 days, and then normal drinking water was supplied for 14 days was repeated. Such an inflammation inducing cycle was repeated 3 times to induce chronic inflammation, ulcer and fibrous conditions in the large intestine. To test animal groups except for control groups, from 3 weeks after a first inflammation inducing cycle was elapsed, bentonite, vactosertib, or a vactosertib/bentonite complex was administered twice a day (10 am, 4 pm), 5 days a week, and for total 6 weeks. The bentonite per 1 kg of converted mouse weight was administered with 106.8 mg, the vactosertib was administered with 20.0 mg, and the complex was administered with 126.8 mg. At this time, as the vactosertib/bentonite complex, the complex prepared in Test Example 5 was used. For each test group used in ulcerative colitis animal tests, inflammation inducing substances, test substances, doses of the test substances, and the number of test animals were shown in Table 7 below.
C57BL/6 mice used in the test were supplied from the Orient Bio Gapyeong Center (699-13, Mokdong-ri, Buk-yeon, Gapyeong-gun, Gyeonggi-do), and about 6-week-old during obtaining. For about 7 days after obtaining, the rats were quarantined and purified and then healthy animals were used for the test. When the induced material was administered, the test animals were about 8-week-old, and 52 mice were used. The test animals were bred in the 2nd floor of Clean Animal Room, Bioscience Research Institute, Research Institute of Medical Science at Inha University, and circulated in at least 10 times/hour and bred under conditions of a temperature of 22±4° C., relative humidity of 50±20%, and illuminance of 150 to 300 Lux of lighting on for 12 hours (lighting: 08:00 to 20:00). A radiation solid feed (FeedLab GMO Free Rodent Diet GF2005) for rodents was free-taken using a feeder and water sterilized by an ultraviolet-ray flowing water sterilizer and high-pressure vapor after reverse osmosis was free-taken using a polysulfonate-made drinking water bottle (300 ml).
In order to induce ulcerative colitis, 2% DSS was added in drinking water of mice and continuously supplied for first 7 days of every test cycle (3 weeks). The test substances were orally administered 2 times a day, 5 days a week, and for a total of 6 weeks at the same time of second DSS induction (FIG. 14). The test substance dose was administered in a liquid amount of 20 mL per kg by body weight converted for each individual based on the body weight. The administration was orally performed by putting a test substance in a syringe and injecting the test substance by connecting a feeding needle for rats.
In order to evaluate a treatment effect of test substances on ulcerative colitis, after the end of the test, the animal was anesthetized, opened, and bled and then a histopathological test was performed for each individual. Histopathological findings were subdivided and scored into severity changes of inflammation, crypt cell damage, ulcer, edema, and fibrosis as shown in Table 8 below. In addition, the four histopathological severity scores excluding fibrosis were summed to compare a positive control (G2) and test substance-administered groups (G3, G4, and […]).
Statistical analysis was performed using Graphpad Prism version 8.01, and a minimum unit of significance was set to p<0.05. Since all measured histopathological indexes were nonparametric data, the indexes were represented by a median, 25% to 75% values (in the box), and minimum-maximum values (both ends) in the graph (FIGS. 15 to 20). […]

[5] = system: interleukin 6 (IL-6); assay: immunohistochemical IL-6 staining of large intestine, DSS ulcerative colitis mouse model; format: in vivo, C57BL/6 mice; conditions: DSS 2% mice, same dosing
Description: Animal tests were performed to confirm anti-inflammatory, anti-crypt cell damage, anti-ulcer, anti-edema, and anti-fibrosis effects of a vactosertib/bentonite complex using a mouse model of ulcerative colitis as one of inflammatory bowel diseases. C57BL/6 mice were selected as test animals, and in order to induce ulcerative colitis, a cycle in which an inflammation inducing substance, DSS was added in drinking water and supplied for 7 days, and then normal drinking water was supplied for 14 days was repeated. Such an inflammation inducing cycle was repeated 3 times to induce chronic inflammation, ulcer and fibrous conditions in the large intestine. […]
In order to observe an immunohistochemical change of a large intestine tissue, a tissue fixed to a 10% neutral buffer formalin solution was sliced, attached to a coating slide, and deparaffinized, and then stained, and IHC of reacting with antibodies IL-6 (Interleukin-6), α-SMA (α-smooth muscle actin), and TGF-β (transforming growth factor beta) on each slide was requested to an external institute (Notus) and the test was performed. In an individual-specific tissue slide, three constant zones were specified and imaged 100 times, a stained portion to the total area was measured, and a mean value was calculated (Zen 2.3 blue edition, Carl Zeiss, Germany). […]

[6] = DSS 2% mice, oral twice a day, 5 days a week, 6 weeks, bentonite 106.8, vactosertib 20.0, complex 126.8 mg/kg, 3 point scale

solubility ([1]; 25 °C, water, thermodynamic from solid, saturated aqueous solution at 25±3° C., pH 7.2): < 20 µg/mL | pH of a saturated aqueous solution ([1]; 25±3° C.): 7.2 | solubility ([1]; aqueous solution, aqueous buffer, at pH 2.81): 25000 µg/mL (≈ 62700 µM) | solubility ([1]; aqueous solution, aqueous buffer, at pH 3): ~1000 µg/mL (≈ 2500 µM) | solubility ([1]; aqueous solution, aqueous buffer, in pH 4.9 or higher): ≤ 20 µg/mL | partition coefficient (octanol/water) Log Do/w [2]: 3.31 | Adsorption rate ([3]; vactosertib 0.01 mg/mL, bentonite 0.5 mg/mL, pH 1): 99.4 ± 0.1% | Adsorption rate ([3]; vactosertib 0.025 mg/mL, bentonite 0.5 mg/mL, pH 1): 99.8 ± 0.0% | Adsorption rate ([3]; vactosertib 0.05 mg/mL, bentonite 0.5 mg/mL, pH 1): 99.8 ± 0.1% | Adsorption rate ([3]; vactosertib 0.1 mg/mL, bentonite 0.5 mg/mL, pH 1): 80.7 ± 1.0% | Adsorption rate ([3]; vactosertib 0.1 mg/mL, bentonite 0.5 mg/mL, pH 2): 79.3 ± 1.0% | Adsorption rate ([3]; vactosertib 0.1 mg/mL, bentonite 0.5 mg/mL, pH 3): 79.0 ± 0.8% | Adsorption rate ([3]; vactosertib 0.15 mg/mL, bentonite 0.5 mg/mL, pH 1): 57.1 ± 1.5% | Adsorption rate ([3]; vactosertib 0.2 mg/mL, bentonite 0.5 mg/mL, pH 1): 43.8 ± 0.5% | Adsorption rate ([3]; vactosertib 0.3 mg/mL, bentonite 0.5 mg/mL, pH 1): 31.2 ± 1.2% | Adsorption rate ([3]; vactosertib 0.4 mg/mL, bentonite 0.5 mg/mL, pH 1): 23.0 ± 0.8% | Adsorption rate ([3]; vactosertib 0.5 mg/mL, bentonite 0.5 mg/mL, pH 1): 19.0 ± 0.9% | Adsorption rate ([3]; vactosertib 1 mg/mL, bentonite 5 mg/mL, pH 1): 90.4 ± 0.2%
SMILES: Cc1cccc(-c2[nH]c(CNc3ccccc3F)nc2-c2ccc3ncnn3c2)n1 [Vactosertib, N-((4-([1,2,4]triazolo[1,5-a]pyridine-6-yl)-5-(6-methylpyridin-2-yl)-1H-imidazol-2-yl)methyl)-2-fluoroaniline]
Edema score (mean) ([4]; DSS 2% mice, oral twice a day, 5 days a week, 6 weeks, bentonite 106.8, vactosertib 20.0, complex 126.8 mg/kg, 1 point scale): 0.3 | Fibrosis score (mean) [4, 6]: 1.5 | Ulcer score (mean) [4, 6]: 0.9 | Crypt cell damage score (mean) ([4]; DSS 2% mice, oral twice a day, 5 days a week, 6 weeks, bentonite 106.8, vactosertib 20.0, complex 126.8 mg/kg, 4 point scale): 2 | Inflammation score (mean) ([4]; DSS 2% mice, oral twice a day, 5 days a week, 6 weeks, bentonite 106.8, vactosertib 20.0, complex 126.8 mg/kg, 5 point scale): 3.6 | median of inflammation index compared with the positive control group (G2) ([4]; FIG. 15, Dunn's test): slightly low in a median of an inflammation index | median of crypt cell damage index compared with the positive control group (G2) ([4]; FIG. 16, Dunn's test): low in a median of a crypt cell damage index, but had no statistical significance | median of ulcer index compared with the positive control group (G2) ([4]; FIG. 17, Dunn's test): low in a median of an ulcer index, but had no statistical significance | median of fibrosis index compared with the positive control group (G2) ([4]; FIG. 19, Dunn's test): slightly low in a median of a fibrosis index | median of summed severity scores (inflammation, crypt cell damage, ulcer, edema) compared with the positive control group (G2) ([4]; FIG. 20, Dunn's test): low in a median of an ulcer index, but had no statistical significance | Histopathologic total score (mean) ([4]; sum of inflammation, crypt cell damage, ulcer, edema (fibrosis excluded), same dosing): 6.8 | reduction of IL-6 staining area compared with G2 group [5]: 23.0% | IL-6 (Area %) ([5]; mean and standard error): 9.7 ± 2.9 Area %
